Data as given in US20200367818A1, “DEVICES, SYSTEMS, AND METHODS FOR TUMOR VISUALIZATION AND REMOVAL” (UNIVERSITY HEALTH NETWORK, priority 2018, published 2020).
Counter-ions that a name gives are not always drawn.

Tested on: invasive breast carcinoma lumpectomy/mastectomy specimens and lymph nodes
Experiment: 5-ALA breast study: PpIX fluorescence imaging of breast tumor specimens and lymph nodes with handheld device (405 nm excitation)
Format: in vivo, human
Conditions: multispectral or multiband fluorescence imaging with 5-ALA
Protocol: In one example, oral 5-ALA was dissolved in water and administered by a study nurse between 2-4 h before surgery in patients at dosages of 15 or 30 mg/kg 5-ALA.
By viewing lymph nodes prior to removal from the subject's body, it is possible to observe, using the device 100, red fluorescence emissions from cells containing induced porphyrins that are within the lymph node.
When combined with 5-ALA red FL, the differing emission spectra of normal tissue AF and PpIX are easily distinguishable visually (see FIGS. 15 and 16). […] The 405 nm excitation LEDs and the dual band emission filter (500-545 nm and 600-660 nm) are suitable for breast tumor imaging using 5-ALA because they provide a composite image comprised of red PpIX and green connective tissue FL, and broad green-to-red FL of adipose tissue (appears pink).

NCC(=O)CCC(=O)O [5-ALA, Aminolevulinic acid hydrochloride]
depth below the imaged tissue surface at which otherwise clinically occult disease is detected: ≤ 2.6 mm
